The text below walks through data of patent US8329645B2, “Polymyxin derivatives and uses thereof” (priority 2008, dated 2012).

By Vd is commonly meant a proportionality between amount in the body and measured concentration, not a real space. Read a low Vd as little distribution into tissue. Broadly, the clearance is a measure of how efficiently the substance is removed, as volume per time. One may read the half-life as how long it takes for the measured level to halve. Broadly, the MIC is the least concentration at which growth counts as inhibited. Low readings indicate inhibition by little substance, high ones a need for much substance.

One data set has as its system E. coli IH3080 (O18:K1). Description: Synergistic bactericidal activity with guinea pig serum (complement). Type of data set: cell-based, Escherichia coli. The method, then: The ability of NAB7061 to sensitize encapsulated, smooth strain of E. coli to the bactericidal action of normal guinea pig serum (GPS) was studied by the method described by Vaara et al. (1984). E. coli IH3080 (018,K1) was grown in LB broth (LB broth Lennox, Difco, BD, Sparks, Md., U.S.A) at 37° C. in a rotary shaker into early logarithmic growth phase, washed with PBS (phosphate-buffered saline, 8.0 g of NaCl, 0.2 g of KCl, 1.44 g of Na2HPO4×2H2O and 0.2 g of KH2PO4 per liter) and resuspended in PBS, to approx. 10^9 cells/ml). GPS was used as complement source. It was stored at −70° C. before use.
The experimental procedure was as follows. 10% GPS in PBS was inoculated with approx. 500 CFU (colony forming units) of bacteria per ml and pipetted in 0.2 ml aliquots into wells of microtiter plates. The wells already contained increasing amounts of NAB7061 in 0.020 ml of 0.9% NaCl. The plate was incubated at 37° C. for 2 h whereafter each well was emptied onto LB plates. The plates were incubated overnight at 37° C. and the developed colonies were counted.

The nature of the next data set: in vivo. Conditions: male, Sprague-Dawley, rat, iv, 1 mg/kg.
Another data set deals with E. coli IH3080. The data set can be described thus: Bactericidal activity in PBS (% survival). Type of data set: cell-based, Escherichia coli. The settings on record: solution age fresh. The protocol:
For the measurement of the antibacterial activity of aqueous solutions of NAB 739 methanesulfonate sodium, three different solutions were made: 1) A solution (1 mg/ml) made in 0.9% NaCl immediately prior to the experiment, 2) a solution (1 mg/ml) made in 0.9% NaCl 24 h prior to the experiment and kept at 37° C., 3) a solution (1 mg/ml) made in 0.9% NaCl 48 h prior to the experiment and kept at 37° C. A freshly made solution of NAB 739 acetate served as the control compound.
The test bacterium was E. coli IH3080. It was grown in LB broth (LB broth Lennox, Difco, BD, Sparks, Md., U.S.A.) at 37 Celsius in a rotary shaker into early logarithmic growth phase, washed with PBS, and resuspended in PBS to approx. 10e9 cells/ml. PBS was inoculated with approx. 500 CFU (colony forming units) of bacteria per ml and pipetted in 0.2 ml aliquots into wells of a microtiter plate. The plates already contained increasing concentrations of NAB 739 methanesulfonate or the control compound in 0.020 ml of 0.9% NaCl. […] The plate was incubated overnight at 37° C. and the developed colonies were counted.

Another data set deals with E. coli CCUG 41421. The protocol:
Polymyxin B sulfate (Sigma-Aldrich, St. Louis, Mo., USA) was used as a control. […] The bacterial test strains originated from ATCC (10 strains), CCUG (11 strains), and NCTC (3 strains). Fourteen (14) strains (the F-strains) were purchased from Mobidiag Ltd., Helsinki, Finland.
The inocula were prepared by adjusting the bacterial suspensions to a density equivalent to OD546 nm˜0.3 (˜10^8 CFU/ml˜0.5 McFarland) the yeast suspension to a density equivalent to OD546 nm˜0.75 (˜2×10^7 CFU/ml)._The suspensions were diluted to 10^7 CFU/ml. The plates were inoculated by using a Denley Multipoint Inoculator, 1 μl per spot corresponding to approx. 10^4 CFU/spot. Plates were incubated for 16-20 hours at 35° C.

Another data set deals with K. oxytoca ATCC13182. Description: Growth inhibition around wells on LB agar plates. Type of data set: cell-based, Klebsiella oxytoca. Conditions: 4 μg. The method, then:
(§1) From an overnight-grown culture of IH3080 on LB agar, a suspension of approx. 10^8 cells/ml was prepared in 0.9% NaCl. Aliquots of this suspension were then pipetted on the agar plates and the plates were gently shaken to spread the suspension evenly on the entire surface of the plate. Thereafter, the unabsorbed part of the suspension was removed by using a Pasteur pipette. After the surface had dried, small wells (diameter, 2 mm) were drilled on the plates (five wells per plate) by using a sterile sharp-edged narrow metal tube, single-use pipette tip, and vacuum suction. An alternative method used a swab to spread the inoculum. Samples (4 μl and 10 μl) of the peptide solution in 0.9% NaCl (at concentrations of 1 μg/ml and 0.1 μg/ml) were then pipetted to the wells and the sample fluids were allowed to absorb. Controls included 0.9% NaCl solution without the compound to be tested. The plates were then incubated for 18 h at 37° C. whereafter the diameters of growth inhibition zones around each well were measured; the diameter of the well itself was not reduced. Finally, the diameters were converted to surface areas of growth inhibition (in square mm).
(§2) The susceptibility of eleven Gram-negative bacterial strains (nine different species) to NAB734 and polymyxin B was compared by using the susceptibility determination method described in Example 2. The strains included those belonging to the species of Serratia marcescens and Proteus mirabilis, both species generally known to be resistant to polymyxin. Furthermore, the susceptibility determination was also performed by using the Gram-positive bacterium, Staphylococcus aureus, also generally known to be polymyxin-resistant. Ten of the strains originated from ATCC (American Type Culture Collection, Manassas, Va., U.S.A.), and one from CCUG (Culture Collection of University of Gothenburg, Sweden). The source of E. coli IH3080 has been described in Example 2. Polymyxin B sulfate was from Sigma-Aldrich (St. Louis, Mo., USA).

The next data set has as its system C. freundii ATCC8090. The data set can be described thus: Growth inhibition around wells on LB agar plates. Type of data set: cell-based, Citrobacter freundii. The protocol:
as §1, §2

For another data set, the system named is P. mirabilis ATCC29906. Description: Growth inhibition around wells on LB agar plates. Type of data set: cell-based, Proteus mirabilis. The protocol:
as §1, §2

A further data set has as its system S. aureus ATCC 25923. The data set can be described thus: Growth inhibition around wells on LB agar plates. Type of data set: cell-based, Staphylococcus aureus. The method, then:
as §1, §2

A further data set relates to E. cloacae ATCC23355. The data set can be described thus: E-test MIC with or without NAB7061 (4 μg/ml), Mueller-Hinton agar. Type of data set: cell-based, Enterobacter cloacae. In a few lines:
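Read-out: MIC taken from the E-strip scale. Testing followed the manufacturer's instructions for strip use.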

≈ marks a conversion by molar mass, not a printed value. Where a SMILES comes first, the peptide text is derived from it. Bridges are numbered along the chain shown (N, C = ends). [ ]: non-standard residue; d: D form. The star is where a group is joined. Decanoyl = CCCCCCCCCC(=O)*; Octanoyl = CCCCCCCC(=O)*; Dab = NCC[C@H](N)C(=O)O; Abu = CC[C@H](N)C(=O)O

Method for in vivo: Each rat (n=5, Sprague-Dawley, male) was anaesthetized using isoflurane, and a polyethylene cannula was inserted into the jugular vein. Each rat was placed into a metabolic cage and allowed to recover from the procedure overnight. […] When collecting samples, the first 100 μl of blood was withdrawn and kept in the syringe. After collecting the actual sample with another syringe, the content of the first syringe was returned to the rat together with 400 μl of heparinized saline. Blood samples were centrifuged to obtain plasma. […] Plasma and urine samples were stored at −80° C.
To a 100-μl sample, 100 μl of acetonitrile was added, the mixture was vortex-mixed for 1 min, and centrifuged at 10,000 g for 10 min. The supernatant was transferred to an SPE C18 cartridge (Sep-Pak, Waters, Mass. USA) for derivatization with 9-fluorenylmethyl chloroformate. […] The chromatography employed the HPLC C18 column (50×4.6 mm), the mobile phase of acetonitrile/tetrahydrofuran/water (60:15:30, v/v), the flow rate of 1.0 ml/min, and the detection at an excitation wavelength of 260 nm and an emission wavelength of 315 nm.

In the case of `CCCCCCCC(=O)N[C@H](C(=O)N[C@@H](CC)C(=O)N[C@H]1CCNC(=O)[C@H]([C@@H](C)O)NC(=O)[C@H](CCN)NC(=O)[C@H](CCN)NC(=O)[C@H](CC(C)C)NC(=O)[C@@H](Cc2ccccc2)NC(=O)[C@H](CCN)NC1=O)[C@@H](C)O` [NAB 7061, OA-Thr-Abu-cy[Dab-Dab-DPhe-Leu-Dab-Dab-Thr-]] (Octanoyl-T[Abu][Dab][Dab][dF]L[Dab][Dab]T; lactam 3-C), the “% survival after 2-hour treatment at 37° C.” value is 500% in the data set on E. coli IH3080 (O18:K1) (10% GPS, heat inactivated, NAB7061 2 μg/ml); 2% in the data set on E. coli IH3080 (O18:K1) (10% GPS, NAB7061 2 μg/ml); 0% in the data set with E. coli IH3080 (O18:K1) (10% GPS, NAB7061 4 μg/ml); 97% with E. coli IH3080 (O18:K1) (none (PBS), NAB7061 2 μg/ml). In addition, the CL renal in “in vivo” (plasma and urine) came to 0.28 ± 0.16 mL/min/kg. Besides, the Vd in “in vivo” (plasma) was 0.339 ± 0.096 L/kg. The clearance in the data set “in vivo” (plasma) was 3.84 ± 0.75 mL/min/kg. Moreover, in “in vivo” (plasma), the half-life came out at 1.1 ± 0.205 h. In “in vivo” (urine), this molecule returned a dose excreted of 7.16 ± 3.7%.
As for `CCCCCCCC(=O)N[C@H](C(=O)N[C@H](CO)C(=O)N[C@H]1CCNC(=O)[C@H]([C@@H](C)O)NC(=O)[C@H](CCN)NC(=O)[C@H](CCN)NC(=O)[C@H](CC(C)C)NC(=O)[C@@H](Cc2ccccc2)NC(=O)[C@H](CCN)NC1=O)[C@@H](C)O` [NAB 739, OA-Thr-DSer-cy[Dab-Dab-DPhe-Leu-Dab-Dab-Thr-]] (Octanoyl-T[dS][Dab][Dab][dF]L[Dab][Dab]T; lactam 3-C), the figures for the “% survival at 37 degrees centigrade” value with E. coli IH3080 (1 μg/ml), with E. coli IH3080 (2 μg/ml) and in the data set on E. coli IH3080 (4 μg/ml) were 21%, 2% and 0%, respectively.
Molecule `CCCCCCCCCC(=O)N[C@H](C(=O)N[C@H](CO)C(=O)N[C@H]1CCNC(=O)[C@H]([C@@H](C)O)NC(=O)[C@H](CCN)NC(=O)[C@H](CCN)NC(=O)[C@H](CC(C)C)NC(=O)[C@@H](Cc2ccccc2)NC(=O)[C@H](CCN)NC1=O)[C@@H](C)O` [NAB 740, DA-Thr-DSer-cy[Dab-Dab-DPhe-Leu-Dab-Dab-Thr-]] (Decanoyl-T[dS][Dab][Dab][dF]L[Dab][Dab]T; lactam 3-C) gave a minimum inhibitory concentration (MIC) with E. coli CCUG 41421 of 2 µg/mL (≈ 1.81 µM).
Turning to Polymyxin B [reference compound], the “growth inhibition around a well” value is 79 square millimeters in the data set on K. oxytoca ATCC13182; 95 square millimeters with C. freundii ATCC8090 (4 μg); 154 square millimeters in the data set on C. freundii ATCC8090 (10 μg); 0 square millimeters with P. mirabilis ATCC29906 (4 μg); 0 square millimeters in the data set on P. mirabilis ATCC29906 (10 μg); 0 square millimeters in the data set on S. aureus ATCC 25923 (4 μg). Moreover, the “growth inhibition around a well” value in the data set on S. aureus ATCC 25923 (10 μg) came to 0 square millimeters. For the same molecule, the “Sensitization factor to antibiotic (MIC without / with 4 μg/ml of NAB 7061)” value in the data set with E. cloacae ATCC23355 was 4.
